# Measurements reported in US20110092476A1, “Bicycloheteroaryl compounds as P2X7 modulators and uses thereof” (Renovis, Inc., priority 2006, published 2011).
# Biological target: T1, P2X7 receptor (Homo sapiens, UniProt Q99572)
# T1 construct: host or cells: THP-1 cells differentiated with LPS and IFN-γ
# T1 sequence (Q99572 1-595): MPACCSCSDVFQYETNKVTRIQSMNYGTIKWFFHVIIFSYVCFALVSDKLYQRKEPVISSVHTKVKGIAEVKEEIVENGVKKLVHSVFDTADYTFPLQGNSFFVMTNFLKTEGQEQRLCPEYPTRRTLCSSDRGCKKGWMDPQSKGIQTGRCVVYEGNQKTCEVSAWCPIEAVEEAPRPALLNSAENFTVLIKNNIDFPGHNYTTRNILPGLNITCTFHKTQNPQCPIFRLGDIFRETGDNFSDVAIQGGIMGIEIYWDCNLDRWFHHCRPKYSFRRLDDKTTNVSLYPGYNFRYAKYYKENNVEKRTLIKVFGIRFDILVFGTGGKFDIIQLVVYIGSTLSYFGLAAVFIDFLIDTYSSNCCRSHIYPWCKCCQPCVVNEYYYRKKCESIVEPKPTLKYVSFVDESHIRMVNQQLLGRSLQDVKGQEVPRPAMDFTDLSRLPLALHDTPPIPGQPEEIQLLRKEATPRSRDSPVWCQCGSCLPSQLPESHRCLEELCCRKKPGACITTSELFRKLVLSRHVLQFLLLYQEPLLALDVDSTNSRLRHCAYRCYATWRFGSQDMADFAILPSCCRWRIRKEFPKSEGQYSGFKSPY
# Experiment: IL-1β release assay in differentiated THP-1 cells stimulated with BzATP (Example 9)
# Assay type: cell-based
# Conditions: 0.1 μM compound (symbols *); differentiated THP-1 cells, BzATP 250 uM; read-out: IL-1β % Inhib. @ 0.3 or 0.1 uM
# Experimental: THP-1 cells (ATCC Cat #285-IF-100) are plated in 96 well plates at a concentration of 200,000 cells per well and allowed to differentiate in RPMI-1640 media (ATCC Cat #30-2001) containing 10% FBS, 100 IU/mL penicillin, 100 ug/mL streptomycin, 100 ng/mL LPS and 100 ng/mL IFN-γ for 16 hours. Following differentiation, the cells are treated for an additional 2 hours in RPMI-1640 media containing 100 IU/mL penicillin, 100 ug/mL streptomycin and fresh LPS at 100 ng/mL. The cells are then pretreated for 30 minutes with the compound of interest at the appropriate concentration in RPMI media containing 100 IU/mL penicillin, 100 ug/mL streptomycin. Following the pretreatment 2′,3′-O-(4-benzoylbenzoyl)-adenosine 5′-triphosphate (Sigma Aldrich Cat #B6396) is added to a final concentration of 250 uM and the cells are incubated for an additional 45 minutes. 30 uL of cell supernatant is then collected and IL-1β levels determined via ELISA (R&D systems Cat. #HSLB50) according to manufacturer's recommendations using the Tecan Safire plate reader. Background adjusted IL-1β levels of drug treated and non-treated cells are used to calculate the percent inhibition.
# The compounds set forth in Table 1 were tested for activity in a cellular model as described herein. Specifically, cells were pretreated with differing amounts of the compound under test and released IL-1β determined as in Example 9, above. Measurements were made and IC50 values, presented in Table 2, below, were determined by fitting the data to a four parameter logistic equation using GraphPad Prism software (GraphPad Software, Inc). The equation may be expressed by the following formula:
# Y=Bottom+(Top−Bottom)/(1+10̂((Log EC50−X)*HillSlope))
# Where X is the logarithm of concentration, Y is the response and Y starts at Bottom and goes to Top with a sigmoid shape.
row,Compound,inhibition at 0.1 µM [%]
1,CC(O)Cn1ccc2c(NC(=O)c3ccc4c(c3)OCCCO4)cccc2c1=O (stereo not drawn) [Compound 171],0 to 25
2,CC(CO)n1ccc2c(NC(=O)CCc3ccc4c(c3)OCO4)cccc2c1=O (stereo not drawn) [Compound 94],0 to 25
3,Cc1cccc(C(=O)Nc2cccc3c(=O)n(CC4(O)CCCCC4)ccc23)c1C [Compound 85],0 to 25
4,COc1ccc(CC(=O)Nc2cccc3c(=O)n(CC(C)O)ccc23)cc1C (stereo not drawn) [Compound 177],0 to 25
5,COc1ccc(C(=O)Nc2cccc3c(=O)n(C(C)CO)ccc23)cc1Cl (stereo not drawn) [Compound 92],0 to 25
6,Cc1ccccc1C(=O)Nc1cccc2c(=O)n(CC(C)O)ccc12 (stereo not drawn) [Compound 139],26 to 50
7,Cc1ccc(C(=O)Nc2cccc3c(=O)n(C(C)CO)ccc23)cc1Cl (stereo not drawn) [Compound 115],0 to 25
8,Cc1cccc(CCC(=O)Nc2cccc3c(=O)n(CC(C)O)ccc23)c1 (stereo not drawn) [Compound 180],0 to 25
9,Cc1ccccc1CCC(=O)Nc1cccc2c(=O)n(C(C)CO)ccc12 (stereo not drawn) [Compound 90],26 to 50
10,Cc1ccc(C(=O)Nc2cccc3c(=O)n(CC4(O)CCCCC4)ccc23)c(C)c1 [Compound 86],0 to 25
11,Cc1cc(C(=O)Nc2cccc3c(=O)n(CC(C)O)ccc23)ccc1F (stereo not drawn) [Compound 175],0 to 25
12,Cc1ccc(Cl)cc1C(=O)Nc1cccc2c(=O)n(CC(C)O)ccc12 (stereo not drawn) [Compound 179],0 to 25
13,CC(O)Cn1ccc2c(NC(=O)CCc3ccccc3Cl)cccc2c1=O (stereo not drawn) [Compound 133],26 to 50
14,COc1cccc(CCC(=O)Nc2cccc3c(=O)n(CC(C)O)ccc23)c1 (stereo not drawn) [Compound 128],0 to 25
15,CC(O)Cn1ccc2c(NC(=O)CCc3ccc4c(c3)OCO4)cccc2c1=O (stereo not drawn) [Compound 134],0 to 25
16,Cc1ccc(Cl)c(C(=O)Nc2cccc3c(=O)n(C(C)CO)ccc23)c1 (stereo not drawn) [Compound 121],0 to 25
17,Cc1ccccc1CCC(=O)Nc1cccc2c(=O)n(CC3(O)CCCCC3)ccc12 [Compound 84],0 to 25
18,CC(C)(C)c1ccc(C(=O)Nc2cccc3c(=O)n(CC4(O)CCCCC4)ccc23)cc1 [Compound 23],0 to 25
19,CC(CO)n1ccc2c(NC(=O)c3ccccc3Cl)cccc2c1=O (stereo not drawn) [Compound 95],0 to 25
20,Cc1cccc(C(=O)Nc2cccc3c(=O)n(CC4(O)CCCCC4)ccc23)c1 [Compound 20],0 to 25
21,COc1ccc(CC(=O)Nc2cccc3c(=O)n(CC(C)O)ccc23)cc1 (stereo not drawn) [Compound 160],0 to 25
22,COc1ccc(OC)c(CC(=O)Nc2cccc3c(=O)n(CC(C)O)ccc23)c1 (stereo not drawn) [Compound 156],26 to 50

# Same assay, conditions: 0.1 μM compound; differentiated THP-1 cells, BzATP 250 uM; "*" symbols; read-out: IL-1β % Inhib. @ 0.3 or 0.1 uM
row,Compound,inhibition at 0.1 µM [%]
1,CC(C)(O)Cn1ccc2c(NC(=O)c3cc(Cl)cc(Cl)c3)cccc2c1=O [Compound 203],0 to 25
2,Cc1c(Cl)cccc1C(=O)Nc1cccc2c(=O)n(CC(C)(C)O)ccc12 [Compound 225],0 to 25
3,Cc1cc(Cl)ccc1C(=O)Nc1cccc2c(=O)n(CC(C)(C)O)ccc12 [Compound 221],26 to 50
4,CC(C)(O)Cn1ccc2c(NC(=O)Cc3ccccc3F)cccc2c1=O [Compound 207],0 to 25
5,CC(C)(O)Cn1ccc2c(NC(=O)c3ccc4ccccc4c3)cccc2c1=O [Compound 206],0 to 25
6,CC(C)(O)Cn1ccc2c(NC(=O)c3cccc4c3OCCO4)cccc2c1=O [Compound 222],0 to 25
7,Cc1ccccc1CC(=O)Nc1cccc2c(=O)n(CC(C)(C)O)ccc12 [Compound 211],0 to 25
8,COc1cccc(CC(=O)Nc2cccc3c(=O)n(CC(C)(C)O)ccc23)c1 [Compound 212],26 to 50

# Same assay, conditions: 0.3 μM compound (symbols +); differentiated THP-1 cells, BzATP 250 uM; read-out: IL-1β % Inhib. @ 0.3 or 0.1 uM
row,Compound,inhibition at 0.3 µM [%]
1,O=C(Nc1cccc2c(=O)n(CCO)ccc12)C1(c2ccc(Cl)cc2)CCCC1 [Compound 79],0 to 25
2,O=C(CCCc1ccccc1)Nc1cccc2c(=O)n(CC3(O)CCCCC3)ccc12 [Compound 36],26 to 50
3,COc1ccc(CCC(=O)Nc2cccc3c(=O)n(CC4(O)CCCCC4)ccc23)cc1 [Compound 25],0 to 25
4,Cc1cccc(C(=O)Nc2cccc3c(=O)n(CC4(O)CCCCC4)ccc23)c1Cl [Compound 55],0 to 25
5,O=C(Nc1cccc2c(=O)n(CC3(O)CCCCC3)ccc12)c1cc2cc(Cl)ccc2o1 [Compound 54],26 to 50
6,COc1ccc(C(=O)Nc2cccc3c(=O)n(CC4(O)CCCCC4)ccc23)c(C)c1 [Compound 56],0 to 25

# Same assay, conditions: 0.3 μM compound; differentiated THP-1 cells, BzATP 250 uM; "+" symbols; read-out: IL-1β % Inhib. @ 0.3 or 0.1 uM
row,Compound,inhibition at 0.3 µM [%]
1,C[C@H](C(N)=O)n1ccc2c(NC(=O)Cc3cccc(C(F)(F)F)c3)cccc2c1=O [Compound 297],> 76
2,C[C@H](CO)n1ccc2c(NC(=O)Cc3ccc(F)c(Cl)c3)cccc2c1=O [Compound 329],51 to 75
3,"CNCCn1ccc2c(NC(=O)Cc3ccc(Cl)c(C(F)(F)F)c3)cccc2c1=O [Compound 235, 2-(4-Chloro-3-trifluoromethyl-phenyl)-N-[2-(2-methylamino-ethyl)-1-oxo-1,2-dihydro-isoquinolin-5-yl]-acetamide]",> 76
4,C[C@H](C(N)=O)n1ccc2c(NC(=O)Cc3ccc(Cl)nc3)cccc2c1=O [Compound 312],0 to 25
5,"CNC(=O)[C@@H](CO)n1ccc2c(NC(=O)C(C)c3ccc(Cl)c(Cl)c3)cccc2c1=O (stereo partly drawn) [Compound 270, (R)-2-{5-[2-(3,4-Dichloro-phenyl)-propionylamino]-1-oxo-1H-isoquinolin-2-yl}-3-hydroxy-N-methyl-propionamide]",> 76
6,CC(C)(CO)n1ccc2c(NC(=O)Cc3ccc(Cl)c(F)c3)cccc2c1=O [Compound 373],51 to 75
7,CC(C)(CO)n1ccc2c(NC(=O)Cc3ccc(C(F)(F)F)c(F)c3)cccc2c1=O [Compound 365],> 76
8,CC(C)C[C@H](CO)n1ccc2c(NC(=O)[C@@H](C)c3ccc(Cl)cc3)cccc2c1=O [Compound 271],> 76
9,C[C@@H](CO)n1ccc2c(NC(=O)Cc3ccc(F)c(C(F)(F)F)c3)cccc2c1=O [Compound 338],> 76
10,C[C@H](C(N)=O)n1ccc2c(NC(=O)Cc3ccccn3)cccc2c1=O [Compound 309],0 to 25
11,C[C@@H](CO)n1ccc2c(NC(=O)Cc3cccc(C(F)(F)F)c3F)cccc2c1=O [Compound 325],> 76
12,"CNC(=O)[C@@H](C(C)C)n1ccc2c(NC(=O)[C@@H](C)c3ccc(Cl)cc3)cccc2c1=O [Compound 276, (R)-2-{5-[(S)-2-(4-Chloro-phenyl)-propionylamino]-1-oxo-1H-isoquinolin-2-yl}-3,N-dimethyl-butyramide]",> 76
13,CNCCn1ccc2c(NC(=O)Cc3ccc(Cl)c(Cl)c3)cccc2c1=O [Compound 234],51 to 75
14,CC(=O)NCCn1ccc2c(NC(=O)Cc3ccc(Cl)c(C(F)(F)F)c3)cccc2c1=O [Compound 391],> 76
15,CC(C(=O)Nc1cccc2c(=O)n(C(CO)CO)ccc12)c1ccc(Cl)cc1 (stereo not drawn) [Compound 231],26 to 50

# Same assay, conditions: THP-1, read-out: IL-1β % Inhib. @ 0.3 or 0.1 uM
row,Compound,inhibition at 0.3 µM [%]
1,"C[C@@H](C(N)=O)n1ccc2c(NC(=O)Cc3ccc(C(F)(F)F)cc3)c(Cl)ccc2c1=O [Compound 345, (S)-2-{6-Chloro-1-oxo-5-[2-(4-trifluoromethyl-phenyl)-acetylamino]-1H-isoquinolin-2-yl}-propionamide]",> 76

# Same assay, conditions: THP-1 cells, BzATP 250 uM, IL-1β by ELISA
row,Compound,IC50 [nM]
1,O=C(Nc1cccc2c(=O)n(CCO)ccc12)C1(c2ccc(Cl)cc2)CCCC1 [Compound 79],> 1000
2,CC(=O)NCCn1ccc2c(NC(=O)Cc3ccc(Cl)c(C(F)(F)F)c3)cccc2c1=O [Compound 391],0.39
